According to PubChem BioAssay (NCI):
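In this assay, cells in 96-well plates receive the compound at five concentrations for 48 hours. Endpoints are linearly interpolated between the surrounding concentrations. TGI denotes the concentration required for complete inhibition of growth.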

Assays:
Assay in all cases: NCI anticancer screen, dose series, 48 h
CAKI-1 renal = tested on: CAKI-1 renal
SF-295 CNS = tested on: SF-295 CNS
UACC-62 melanoma = tested on: UACC-62 melanoma
MALME-3M melanoma = tested on: MALME-3M melanoma
SF-539 CNS = tested on: SF-539 CNS
DU-145 prostate = tested on: DU-145 prostate
T-47D breast = tested on: T-47D breast
OVCAR-8 ovarian = tested on: OVCAR-8 ovarian
HCC-2998 colon = tested on: HCC-2998 colon
ACHN renal = tested on: ACHN renal
TK-10 renal = tested on: TK-10 renal
COLO 205 colon = tested on: COLO 205 colon
MDA-MB-231 breast = tested on: MDA-MB-231 breast
OVCAR-5 ovarian = tested on: OVCAR-5 ovarian
OVCAR-3 ovarian = tested on: OVCAR-3 ovarian
SNB-75 CNS = tested on: SNB-75 CNS
U251 CNS = tested on: U251 CNS
HT29 colon = tested on: HT29 colon
HCT-116 colon = tested on: HCT-116 colon
KM12 colon = tested on: KM12 colon
OVCAR-4 ovarian = tested on: OVCAR-4 ovarian
HOP-62 NSCLC = tested on: HOP-62 NSCLC
NCI-H23 lung = tested on: NCI-H23 lung
M14 melanoma = tested on: M14 melanoma
HS 578T breast = tested on: HS 578T breast
SNB-19 CNS = tested on: SNB-19 CNS
SN12C renal = tested on: SN12C renal
MCF7 breast = tested on: MCF7 breast
RXF 393 renal = tested on: RXF 393 renal
PC-3 prostate = tested on: PC-3 prostate
EKVX NSCLC = tested on: EKVX NSCLC
SW-620 colon = tested on: SW-620 colon
A498 renal = tested on: A498 renal
K-562 leukemia = tested on: K-562 leukemia
786-0 renal = tested on: 786-0 renal
UACC-257 melanoma = tested on: UACC-257 melanoma
BT-549 breast = tested on: BT-549 breast
UO-31 renal = tested on: UO-31 renal
SF-268 CNS = tested on: SF-268 CNS
HCT-15 colon = tested on: HCT-15 colon
A549 NSCLC = tested on: A549 NSCLC
SK-MEL-5 melanoma = tested on: SK-MEL-5 melanoma
HOP-92 NSCLC = tested on: HOP-92 NSCLC
RPMI-8226 leukemia = tested on: RPMI-8226 leukemia
SK-MEL-28 melanoma = tested on: SK-MEL-28 melanoma
IGROV1 ovarian = tested on: IGROV1 ovarian
NCI-H460 lung = tested on: NCI-H460 lung
NCI/ADR-RES ovarian = tested on: NCI/ADR-RES ovarian
LOX IMVI melanoma = tested on: LOX IMVI melanoma
SR leukemia = tested on: SR leukemia
MDA-N = tested on: MDA-N
MDA-MB-435 = tested on: MDA-MB-435
SK-OV-3 ovarian = tested on: SK-OV-3 ovarian
NCI-H226 lung = tested on: NCI-H226 lung
CCRF-CEM leukemia = tested on: CCRF-CEM leukemia
SK-MEL-2 melanoma = tested on: SK-MEL-2 melanoma
MOLT-4 leukemia = tested on: MOLT-4 leukemia
NCI-H522 lung = tested on: NCI-H522 lung
HL-60(TB) leukemia = tested on: HL-60(TB) leukemia

How did the TGI (CAKI-1 renal) turn out when `CCSc1nnc(Sc2c3ccccc3nc3ccccc23)s1` was run?
The TGI was 15.5 µM.

What about the TGI (SF-295 CNS) of the same compound?
Its TGI is > 100 µM.

What about the TGI (UACC-62 melanoma) of the same compound?
The TGI was 31.6 µM.

And the TGI (MALME-3M melanoma)?
Its TGI is > 100 µM.

And the TGI (SF-539 CNS)?
The TGI was 21.9 µM.

What about the TGI (DU-145 prostate) of the same compound?
The TGI was 30.2 µM.

And the TGI (T-47D breast)?
Its TGI is > 44.2 µM.

What about the TGI (OVCAR-8 ovarian) of the same compound?
Its TGI is > 51.5 µM.

And the TGI (HCC-2998 colon)?
Its TGI is 25.3 µM.

What about the TGI (ACHN renal) of the same compound?
The TGI was 17.7 µM.

What about the TGI (TK-10 renal) of the same compound?
Its TGI is 15.8 µM.

What about the TGI (COLO 205 colon) of the same compound?
Its TGI is 7.01 µM.

And the TGI (MDA-MB-231 breast)?
Its TGI is 56.6 µM.

What about the TGI (OVCAR-5 ovarian) of the same compound?
The TGI was 43.4 µM.

What about the TGI (OVCAR-3 ovarian) of the same compound?
The TGI was 29.4 µM.

And the TGI (SNB-75 CNS)?
The TGI was > 100 µM.

What about the TGI (U251 CNS) of the same compound?
The TGI was > 57.9 µM.

What about the TGI (HT29 colon) of the same compound?
Its TGI is > 55.6 µM.

What about the TGI (HCT-116 colon) of the same compound?
Its TGI is 23.5 µM.

And the TGI (KM12 colon)?
The TGI was 77.8 µM.

What about the TGI (OVCAR-4 ovarian) of the same compound?
Its TGI is 34.7 µM.

What about the TGI (HOP-62 NSCLC) of the same compound?
Its TGI is > 100 µM.

What about the TGI (NCI-H23 lung) of the same compound?
Its TGI is 53.1 µM.

And the TGI (M14 melanoma)?
Its TGI is 32.1 µM.

And the TGI (HS 578T breast)?
Its TGI is > 100 µM.

And the TGI (SNB-19 CNS)?
The TGI was > 84.5 µM.

And the TGI (SN12C renal)?
The TGI was 59.9 µM.

What about the TGI (MCF7 breast) of the same compound?
The TGI was 17.5 µM.

What about the TGI (RXF 393 renal) of the same compound?
The TGI was 35.3 µM.

What about the TGI (PC-3 prostate) of the same compound?
Its TGI is 46.7 µM.

What about the TGI (EKVX NSCLC) of the same compound?
The TGI was 16.7 µM.

What about the TGI (SW-620 colon) of the same compound?
The TGI was > 40.8 µM.

What about the TGI (A498 renal) of the same compound?
The TGI was > 62.4 µM.

And the TGI (K-562 leukemia)?
Its TGI is > 100 µM.

What about the TGI (786-0 renal) of the same compound?
The TGI was 7.54 µM.

What about the TGI (UACC-257 melanoma) of the same compound?
The TGI was 23.6 µM.

What about the TGI (BT-549 breast) of the same compound?
Its TGI is 31.7 µM.

What about the TGI (UO-31 renal) of the same compound?
The TGI was 23.7 µM.

What about the TGI (SF-268 CNS) of the same compound?
Its TGI is > 56.4 µM.

What about the TGI (HCT-15 colon) of the same compound?
Its TGI is 13.3 µM.

And the TGI (A549 NSCLC)?
Its TGI is > 100 µM.

And the TGI (SK-MEL-5 melanoma)?
Its TGI is 38.6 µM.

What about the TGI (HOP-92 NSCLC) of the same compound?
The TGI was > 44.8 µM.

And the TGI (RPMI-8226 leukemia)?
Its TGI is > 28 µM.

What about the TGI (SK-MEL-28 melanoma) of the same compound?
The TGI was > 59.1 µM.

What about the TGI (IGROV1 ovarian) of the same compound?
The TGI was > 55 µM.

And the TGI (NCI-H460 lung)?
Its TGI is 42.5 µM.

What about the TGI (NCI/ADR-RES ovarian) of the same compound?
Its TGI is > 64.2 µM.

What about the TGI (LOX IMVI melanoma) of the same compound?
Its TGI is 23.7 µM.

What about the TGI (SR leukemia) of the same compound?
Its TGI is > 100 µM.

What about the TGI (MDA-N) of the same compound?
Its TGI is 25.1 µM.

And the TGI (MDA-MB-435)?
The TGI was > 61.8 µM.

What about the TGI (SK-OV-3 ovarian) of the same compound?
Its TGI is > 100 µM.

What about the TGI (NCI-H226 lung) of the same compound?
The TGI was > 78.9 µM.

And the TGI (CCRF-CEM leukemia)?
The TGI was > 100 µM.

And the TGI (SK-MEL-2 melanoma)?
The TGI was 56.2 µM.

And the TGI (MOLT-4 leukemia)?
The TGI was 6.25 µM.

Which results are given for `Cc1ccc2c(c1)C(=O)C1(C2)Cc2c(C)cccc2C1=O` (stereo not given)?
TGI (CAKI-1 renal): > 100 µM; TGI (SF-295 CNS): > 100 µM; TGI (UACC-62 melanoma): > 100 µM; TGI (MALME-3M melanoma): > 100 µM; TGI (SF-539 CNS): > 100 µM; TGI (DU-145 prostate): > 100 µM; TGI (T-47D breast): > 100 µM; TGI (OVCAR-8 ovarian): > 100 µM; TGI (HCC-2998 colon): > 100 µM; TGI (ACHN renal): > 100 µM; TGI (NCI-H522 lung): > 100 µM; TGI (TK-10 renal): > 100 µM; TGI (COLO 205 colon): > 100 µM; TGI (MDA-MB-231 breast): > 100 µM; TGI (OVCAR-5 ovarian): > 100 µM; TGI (OVCAR-3 ovarian): > 100 µM; TGI (SNB-75 CNS): > 100 µM; TGI (U251 CNS): > 100 µM; TGI (HT29 colon): > 100 µM; TGI (HCT-116 colon): > 100 µM; TGI (HL-60(TB) leukemia): > 100 µM; TGI (KM12 colon): > 100 µM; TGI (OVCAR-4 ovarian): > 100 µM; TGI (HOP-62 NSCLC): > 100 µM; TGI (NCI-H23 lung): > 100 µM; TGI (M14 melanoma): > 100 µM; TGI (HS 578T breast): > 100 µM; TGI (SNB-19 CNS): > 100 µM; TGI (SN12C renal): > 100 µM; TGI (MCF7 breast): > 100 µM; TGI (RXF 393 renal): > 100 µM; TGI (PC-3 prostate): > 100 µM; TGI (EKVX NSCLC): > 100 µM; TGI (SW-620 colon): > 100 µM; TGI (A498 renal): > 100 µM; TGI (K-562 leukemia): > 100 µM; TGI (786-0 renal): > 100 µM; TGI (UACC-257 melanoma): > 100 µM; TGI (BT-549 breast): > 100 µM; TGI (UO-31 renal): > 100 µM; TGI (SF-268 CNS): > 100 µM; TGI (HCT-15 colon): > 100 µM; TGI (A549 NSCLC): > 100 µM; TGI (SK-MEL-5 melanoma): > 100 µM; TGI (HOP-92 NSCLC): > 100 µM; TGI (RPMI-8226 leukemia): > 100 µM; TGI (SK-MEL-28 melanoma): > 100 µM; TGI (IGROV1 ovarian): > 100 µM; TGI (NCI-H460 lung): > 100 µM; TGI (NCI/ADR-RES ovarian): > 100 µM; TGI (LOX IMVI melanoma): > 100 µM; TGI (SR leukemia): > 100 µM; TGI (MDA-N): > 100 µM; TGI (MDA-MB-435): > 100 µM; TGI (SK-OV-3 ovarian): > 100 µM; TGI (NCI-H226 lung): > 100 µM; TGI (CCRF-CEM leukemia): > 100 µM; TGI (MOLT-4 leukemia): > 100 µM
